Test results reported in patent US20260022142A1, “MACROCYCLIC IMMUNOMODULATORS” (Bristol-Myers Squibb Company, priority 2022, published 2026).
pIC50: −log10 of the molar value. Bridge positions count the residues as written; N and C are the ends. Square brackets hold non-standard residues; d marks the D form. Peptide text beside a SMILES is read from it. * marks the point of attachment. ξ: configuration not given here. Phe(3-CF3) = N[C@@H](Cc1cccc(C(F)(F)F)c1)C(=O)O; Phe(4-CONH2) = NC(=O)c1ccc(C[C@H](N)C(=O)O)cc1; Phe(4-COOH) = N[C@@H](Cc1ccc(C(=O)O)cc1)C(=O)O; Bip = N[C@@H](Cc1ccc(-c2ccccc2)cc1)C(=O)O; Abu(4,4,4-F3) = N[C@@H](CC(F)(F)F)C(=O)O; Phe(3-Me) = Cc1cccc(C[C@H](N)C(=O)O)c1; Phe(4-F) = N[C@@H](Cc1ccc(F)cc1)C(=O)O; NH(CH2)12COOH = O=C(O)CCCCCCCCCCCCN*; Val(3-OH) = CC(C)(O)[C@H](N)C(=O)O; 4Pal = N[C@@H](Cc1ccncc1)C(=O)O; Cha = N[C@@H](CC1CCCCC1)C(=O)O; Cit = NC(=O)NCCC[C@H](N)C(=O)O; Thr(3ξ) = CC(O)[C@H](N)C(=O)O; 12Ado = NCCCCCCCCCCCC(=O)O; Carboxymethyl = O=C(O)C*; Orn = NCCC[C@H](N)C(=O)O; Pra = C#CC[C@H](N)C(=O)O; Aun = NCCCCCCCCCCC(=O)O; Dab = NCC[C@H](N)C(=O)O; Dap = NC[C@H](N)C(=O)O; AEEA = NCCOCCOCC(=O)O

Each molecule was assayed against T1, PD-1/PD-L1 interaction (PE-labeled human PD-L1-Ig binding to Jurkat cell line over-expressing human PD-1) (Homo sapiens, UniProt Q15116) (assay: Jurkat-PD-1 Cell Binding High-Content Screening Assay (CBA)). Settings: Jurkat cell line over-expressing human PD-1; PE-labeled PD-L1-Ig 20 nM final; read-out: Jurkat hPD1-PDL1 IC50.
T1 construct: expressed in transfected cells; host or cells: Jurkat
Assay type: cell-based
How it was run: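 Binding of fluorescent PD-L1-Ig (20 nM final) to Jurkat-PD-1 cells was measured by automated imaging after 1 h, following a 2 h compound pre-treatment at 37° C.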

T1 sequence (Q15116 25-288): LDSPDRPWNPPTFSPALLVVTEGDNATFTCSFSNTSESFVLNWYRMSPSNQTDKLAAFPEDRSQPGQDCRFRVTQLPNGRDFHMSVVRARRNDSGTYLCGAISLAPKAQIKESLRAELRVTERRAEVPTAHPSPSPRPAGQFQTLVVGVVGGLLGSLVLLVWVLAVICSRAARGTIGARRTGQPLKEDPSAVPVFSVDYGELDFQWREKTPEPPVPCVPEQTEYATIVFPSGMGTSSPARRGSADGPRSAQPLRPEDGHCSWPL

Structure (SMILES) | pIC50
Cc1cccc(C[C@@H]2NC(=O)[C@H](CC(=O)O)NC(=O)[C@H](Cc3ccc(OCC(=O)O)cc3)NC(=O)[C@H](CCCNC(=N)N)NC(=O)CSC[C@@H](C(=O)N[C@@H](CCN)C(=O)NCCCCCCCCCCC(=O)O)NC(=O)[C@H](CO)NC(=O)[C@H](C(C)C)NC(=O)[C@H](CC3CCCCC3)NC(=O)[C@H](CCN)NC(=O)[C@@H](CC(C)C)NC(=O)[C@H](CCCN)NC(=O)[C@H](Cc3ccc(OCC(=O)O)cc3)NC(=O)[C@H](Cc3ccc(-c4ccccc4)cc3)NC(=O)[C@H](Cc3ccc(OCC(=O)O)cc3)NC2=O)c1 [Compound 2083] ({CH2CO}-RY(Carboxymethyl)D[Phe(3-Me)]Y(Carboxymethyl)[Bip]Y(Carboxymethyl)[Orn][dL][Dab][Cha]VSC[Dab][Aun]-OH; thioether N-14) | 8.08
Cc1cccc(C[C@@H]2NC(=O)[C@H](CC(=O)O)NC(=O)[C@H](Cc3ccncc3)NC(=O)[C@H](Cc3ccc(OCC(=O)O)cc3)NC(=O)CSC[C@@H](C(=O)N[C@@H](CCN)C(=O)NCCOCCOCC(=O)NCCCCCCCCCCC(=O)O)NC(=O)[C@H](CCCN)NC(=O)[C@H](C(C)C)NC(=O)[C@H](CC3CCCCC3)NC(=O)[C@H](CCN)NC(=O)[C@@H](CC(C)C)NC(=O)[C@H](CCCN)NC(=O)[C@H](Cc3ccc(O)cc3)NC(=O)[C@H](Cc3ccc(-c4ccccc4)cc3)NC(=O)[C@H](C(C)C)NC2=O)c1 [Compound 2709] ({CH2CO}-Y(Carboxymethyl)[4Pal]D[Phe(3-Me)]V[Bip]Y[Orn][dL][Dab][Cha]V[Orn]C[Dab][AEEA][Aun]-OH; thioether N-14) | 8.08
CC[C@H](C)[C@@H]1NC(=O)[C@H](Cc2ccc(-c3ccccc3)cc2)NC(=O)[C@H](C(C)C)NC(=O)[C@H](Cc2cccc(C)c2)NC(=O)[C@H](CC(=O)O)NC(=O)[C@H](Cc2ccc(C(=O)O)cc2)NC(=O)[C@H](Cc2ccncc2)NC(=O)CSC[C@@H](C(=O)N[C@@H](C)C(=O)N[C@@H](CCC(=O)O)C(=O)NCC(=O)NCCCCCCCCCCC(=O)O)NC(=O)[C@H]([C@@H](C)O)NC(=O)[C@H](C(C)C)NC(=O)[C@H](CC2CCCCC2)NC(=O)[C@H](CCN)NC(=O)[C@@H](CC(C)C)NC(=O)[C@H](CCCN)NC1=O [Compound 1041] | 7.82
Cc1cccc(C[C@@H]2NC(=O)[C@H](CC(=O)O)NC(=O)[C@H](Cc3ccc(OCC(=O)O)cc3)NC(=O)[C@H](CCCNC(=N)N)NC(=O)CSC[C@@H](C(=O)N[C@@H](CCN)C(=O)NCCCCCCCCCCC(=O)O)NC(=O)[C@H](CCCNC(N)=O)NC(=O)[C@H](C(C)C)NC(=O)[C@H](CC3CCCCC3)NC(=O)[C@H](CCN)NC(=O)[C@@H](CC(C)C)NC(=O)[C@H](CCCN)NC(=O)[C@H](Cc3ccc(O)cc3)NC(=O)[C@H](Cc3ccc(-c4ccccc4)cc3)NC(=O)[C@H](C(C)C)NC2=O)c1 [Compound 2723] ({CH2CO}-RY(Carboxymethyl)D[Phe(3-Me)]V[Bip]Y[Orn][dL][Dab][Cha]V[Cit]C[Dab][Aun]-OH; thioether N-14) | 7.57
CC(C)C[C@H]1NC(=O)[C@H](CCCN)NC(=O)[C@H](C(C)C)NC(=O)[C@H](Cc2ccc(-c3ccccc3)cc2)NC(=O)[C@H](C(C)C)NC(=O)[C@H](Cc2c[nH]c3ccccc23)NC(=O)[C@H](CC(=O)O)NC(=O)[C@H](Cc2ccc(OCC(=O)O)cc2)NC(=O)[C@H](Cc2ccc(OCC(=O)O)cc2)NC(=O)CSC[C@@H](C(=O)N[C@@H](CCCCN)C(=O)NCCOCCOCC(=O)NCCCCCCCCCCC(=O)O)NC(=O)[C@H](CCCN)NC(=O)[C@H](C(C)C)NC(=O)[C@H](CC2CCCCC2)NC(=O)[C@H](CCN)NC1=O [Compound 2529] ({CH2CO}-Y(Carboxymethyl)Y(Carboxymethyl)DWV[Bip]V[Orn][dL][Dab][Cha]V[Orn]CK[AEEA][Aun]-OH; thioether N-14) | 7.90
C#CC[C@H](NC(=O)COCCOCCNC(=O)[C@H](CCCN)NC(=O)[C@@H]1CSCC(=O)N[C@@H](Cc2ccncc2)C(=O)N[C@@H](Cc2ccc(OCC(=O)O)cc2)C(=O)N[C@@H](CC(=O)O)C(=O)N[C@@H](Cc2c[nH]c3ccccc23)C(=O)N[C@@H](C(C)C)C(=O)N[C@@H](Cc2ccc(-c3ccccc3)cc2)C(=O)N[C@@H]([C@@H](C)CC)C(=O)N[C@@H](CCCN)C(=O)N[C@H](CC(C)C)C(=O)N[C@@H](CCN)C(=O)N[C@@H](CC(C)C)C(=O)N[C@@H](C(C)C)C(=O)N[C@@H]([C@@H](C)O)C(=O)N1)C(=O)NCCCCCCCCCCC(=O)O [Compound 1207] ({CH2CO}-[4Pal]Y(Carboxymethyl)DWV[Bip]I[Orn][dL][Dab]LVTC[Orn][AEEA][Pra][Aun]-OH; thioether N-14) | 7.55

The remaining lines, values ahead:

pIC50 | Structure (SMILES)
7.88 | Cc1cccc(C[C@@H]2NC(=O)[C@H](CC(=O)O)NC(=O)[C@H](Cc3ccc(OCC(=O)O)cc3)NC(=O)[C@H](Cc3ccncc3)NC(=O)CSC[C@@H](C(=O)N[C@@H](CO)C(=O)NCCCCCCCCCCC(=O)O)NC(=O)[C@H](C(C)O)NC(=O)[C@H](C(C)(C)O)NC(=O)[C@H](CC3CCCCC3)NC(=O)[C@H](CCN)NC(=O)[C@@H](CC(C)C)NC(=O)[C@H](CCCN)NC(=O)[C@H](Cc3ccc(O)cc3)NC(=O)[C@H](Cc3ccc(-c4ccccc4)cc3)NC(=O)[C@H](Cc3ccc(C(N)=O)cc3)NC2=O)c1 (stereo partly drawn) [Compound 3726] ({CH2CO}-[4Pal]Y(Carboxymethyl)D[Phe(3-Me)][Phe(4-CONH2)][Bip]Y[Orn][dL][Dab][Cha][Val(3-OH)][Thr(3ξ)]CS[Aun]-OH; thioether N-14)
7.24 | Cc1cccc(C[C@@H]2NC(=O)[C@H](CC(=O)O)NC(=O)[C@H](Cc3ccc(OCC(=O)O)cc3)NC(=O)[C@H](Cc3ccc(F)cc3)NC(=O)CSC[C@@H](C(=O)N[C@@H](CCN)C(=O)NCCOCCOCC(=O)NCCOCCOCC(=O)NCCCCCCCCCCCCC(=O)O)NC(=O)[C@H](CO)NC(=O)[C@H](C(C)(C)O)NC(=O)[C@H](CC3CCCCC3)NC(=O)[C@H](Cc3cnc[nH]3)NC(=O)[C@@H](CC(C)C)NC(=O)[C@H](CCCN)NC(=O)[C@H](Cc3ccc(OCC(=O)O)cc3)NC(=O)[C@H](Cc3ccc(-c4ccccc4)cc3)NC(=O)[C@H](Cc3ccc(OCC(=O)O)cc3)NC2=O)c1 [Compound 3817] ({CH2CO}-[Phe(4-F)]Y(Carboxymethyl)D[Phe(3-Me)]Y(Carboxymethyl)[Bip]Y(Carboxymethyl)[Orn][dL]H[Cha][Val(3-OH)]SC[Dab][AEEA][AEEA]-{NH(CH2)12COOH}; thioether N-14)
7.97 | CC(C)C[C@H]1NC(=O)[C@H](CCCN)NC(=O)[C@H](C(C)C)NC(=O)[C@H](Cc2ccc(-c3ccccc3)cc2)NC(=O)[C@H](C(C)C)NC(=O)[C@H](Cc2c[nH]c3ccccc23)NC(=O)[C@H](CC(=O)O)NC(=O)[C@H](Cc2ccc(OCC(=O)O)cc2)NC(=O)[C@H](CCCNC(=N)N)NC(=O)CSC[C@@H](C(=O)NCC(=O)NCCOCCOCC(=O)N[C@@H](CCCN)C(=O)NCCCCCCCCCCCC(=O)O)NC(=O)[C@H](CN)NC(=O)[C@H](C(C)C)NC(=O)[C@H](CC2CCCCC2)NC(=O)[C@H](CCN)NC1=O [Compound 3172] ({CH2CO}-RY(Carboxymethyl)DWV[Bip]V[Orn][dL][Dab][Cha]V[Dap]CG[AEEA][Orn][12Ado]-OH; thioether N-14)
7.92 | CC(=O)NCCCC[C@@H]1NC(=O)[C@H](C(C)C)NC(=O)[C@H](CC2CCCCC2)NC(=O)[C@H](CCN)NC(=O)[C@@H](CC(C)C)NC(=O)[C@H](CCN)NC(=O)[C@H](C(C)C)NC(=O)[C@H](Cc2ccc(-c3ccccc3)cc2)NC(=O)[C@H](C(C)C)NC(=O)[C@H](Cc2cccc(C)c2)NC(=O)[C@H](CC(=O)O)NC(=O)[C@H](Cc2ccc(OCC(=O)O)cc2)NC(=O)[C@H](C(C)O)NC(=O)CSC[C@@H](C(=O)NCCOCCOCC(=O)NCCCCCCCCCCC(=O)O)NC1=O (stereo partly drawn) [Compound 3443] ({CH2CO}-[Thr(3ξ)]Y(Carboxymethyl)D[Phe(3-Me)]V[Bip]V[Dab][dL][Dab][Cha]VK(Ac)C[AEEA][Aun]-OH; thioether N-14)
8.00 | CC(C)C[C@H]1NC(=O)[C@H](CCCN)NC(=O)[C@H](C(C)C)NC(=O)[C@H](Cc2ccc(-c3ccccc3)cc2)NC(=O)[C@H](C(C)C)NC(=O)[C@H](Cc2c[nH]c3ccccc23)NC(=O)[C@H](CC(=O)O)NC(=O)[C@H](Cc2ccc(OCC(=O)O)cc2)NC(=O)[C@H](C(C)O)NC(=O)CSC[C@@H](C(=O)NCCOCCOCC(=O)N[C@@H](CCCCN)C(=O)NCCCCCCCCCCC(=O)O)NC(=O)[C@H](C(C)O)NC(=O)[C@H](C(C)C)NC(=O)[C@H](CC2CCCCC2)NC(=O)[C@H](CCN)NC1=O (stereo partly drawn) [Compound 3052] ({CH2CO}-[Thr(3ξ)]Y(Carboxymethyl)DWV[Bip]V[Orn][dL][Dab][Cha]V[Thr(3ξ)]C[AEEA]K[Aun]-OH; thioether N-14)
6.78 | CC(C)C[C@H]1NC(=O)[C@H](Cc2cnc[nH]2)NC(=O)[C@H](Cc2ccc(C(=O)O)cc2)NC(=O)[C@H](Cc2ccc(-c3ccccc3)cc2)NC(=O)[C@H](Cc2ccc(C(=O)O)cc2)NC(=O)[C@H](Cc2cccc(C(F)(F)F)c2)NC(=O)[C@H](CC(=O)O)NC(=O)[C@H](Cc2ccc(OCC(=O)O)cc2)NC(=O)[C@H](CC(F)(F)F)NC(=O)CSC[C@@H](C(=O)N[C@@H](CCN)C(=O)NCCCCCCCCCCCCC(=O)O)NC(=O)[C@H](CO)NC(=O)[C@H](C(C)(C)O)NC(=O)[C@H](CC2CCCCC2)NC(=O)[C@H](CCN)NC1=O [Compound 3857] ({CH2CO}-[Abu(4,4,4-F3)]Y(Carboxymethyl)D[Phe(3-CF3)][Phe(4-COOH)][Bip][Phe(4-COOH)]H[dL][Dab][Cha][Val(3-OH)]SC[Dab]-{NH(CH2)12COOH}; thioether N-14)
7.38 | CC(C)C[C@H]1NC(=O)[C@H](CCCN)NC(=O)[C@H](Cc2ccc(O)cc2)NC(=O)[C@H](Cc2ccc(-c3ccccc3)cc2)NC(=O)[C@H](Cc2ccc(O)cc2)NC(=O)[C@H](Cc2c[nH]c3ccccc23)NC(=O)[C@H](CC(=O)O)NC(=O)[C@H](Cc2ccc(OCC(=O)O)cc2)NC(=O)[C@H](C(C)O)NC(=O)CSC[C@@H](C(=O)N[C@H](CC(N)=O)C(=O)NCCCCCCCCCCC(=O)O)NC(=O)[C@H](C(C)O)NC(=O)[C@H](C(C)C)NC(=O)[C@H](CC2CCCCC2)NC(=O)[C@H](CCN)NC1=O (stereo partly drawn) [Compound 3429] ({CH2CO}-[Thr(3ξ)]Y(Carboxymethyl)DWY[Bip]Y[Orn][dL][Dab][Cha]V[Thr(3ξ)]C[dN][Aun]-OH; thioether N-14)
